US9878994B2, “2-H-indazole derivatives as cyclin-dependent kinase (CDK) inhibitors and therapeutic uses thereof” (Beta Pharma, Inc., priority 2014, dated 2018)
Read-outs that look alike come from different tables or passages of the source.

How the values were obtained:
[1] = biological target: CDK4 (Homo sapiens, UniProt P11802); experiment: CDK4 biochemical assay (33P-ATP filter-binding kinase assay)
Description: (§1) Cyclin Dl was added to freshly prepared reaction buffer [20 mM Hepes (pH 7.5), 10 mM MgCl2, 1 mM EGTA, 0.02% Brij 35, 0.02 mg/mL BSA, 0.1 mM Na3VO4, 2 mM DTT, 1% DMSO]. CDK4 or CDK6 was delivered to the substrate solution and gently mixed. […] The compounds, diluted in DMSO, were added into the kinase reaction mixture by Acoustic technology (Echo550; nanoliter range) and incubated for 20 minutes at room temperature. 33P-ATP (1 μM) was added to the reaction mixture to initiate the reaction. The kinase reaction was incubated for 2 hours at room temperature. The reactions were spotted onto P81 ion exchange paper and the kinase activity detected by filter-binding method. Curves were fitted to a nonlinear regression curve using a four parameter logistic equation (GraphPad Prism).

[2] = biological target: CDK6 (Homo sapiens, UniProt Q00534); experiment: CDK6 biochemical assay (33P-ATP filter-binding kinase assay)
Description: as §1

[3] = system: MCF7 human tumor cells; experiment: MCF7 cell assay (Cell Titer-Glo, inhibition of cell growth); format: cell-based; conditions: 72 hours of culture
Description: The MCF7 human tumor cells were seeded in a clear polystyrene 96-well microculture plate (Corning® Costar® 96-well flat bottom plate, Cat. #3997) in a total volume of 90 μL/well. After 24 hours of incubation in a humidified incubator at 37° C. with 5% CO2 and 95% air, 10 μL of 10×, serially diluted 1 in growth medium was added to each well in duplicate (10 point dose response). After 72 hours of culture in a humidified incubator at 37° C., in an atmosphere of 5% CO2 and 95% air, the plated cells and Cell Titer-Glo® (Promega G7571) reagents were brought to room temperature to equilibrate for 30 minutes. 100 μL of Cell Titer-Glo® reagent was added to each well. The plate was shaken for two minutes and then left to equilibrate for ten minutes. The medium/Cell Titer Glo® reagent was transferred to a white polystyrene 96-well microculture plate (Corning® Costar® 96-well flat bottom plate, Cat. #3917) before reading luminescence on the Tecan GENios microplate reader. Percent inhibition of cell growth was calculated relative to untreated control wells. All tests were performed in duplicate at each concentration level. The IC50 value for the test agents was estimated using Prism 6.05 by curve-fitting the data using the following four parameter-logistic equation: […]

Chain of CDK4 (P11802 whole entry): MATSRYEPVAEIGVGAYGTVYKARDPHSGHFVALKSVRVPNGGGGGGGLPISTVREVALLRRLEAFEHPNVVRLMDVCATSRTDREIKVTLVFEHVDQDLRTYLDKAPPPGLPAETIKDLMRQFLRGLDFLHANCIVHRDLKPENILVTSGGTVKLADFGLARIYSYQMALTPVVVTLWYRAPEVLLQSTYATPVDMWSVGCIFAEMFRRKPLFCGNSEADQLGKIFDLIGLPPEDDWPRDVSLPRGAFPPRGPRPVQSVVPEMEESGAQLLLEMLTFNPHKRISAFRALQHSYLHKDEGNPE
Chain of CDK4 (P24385 whole entry partner): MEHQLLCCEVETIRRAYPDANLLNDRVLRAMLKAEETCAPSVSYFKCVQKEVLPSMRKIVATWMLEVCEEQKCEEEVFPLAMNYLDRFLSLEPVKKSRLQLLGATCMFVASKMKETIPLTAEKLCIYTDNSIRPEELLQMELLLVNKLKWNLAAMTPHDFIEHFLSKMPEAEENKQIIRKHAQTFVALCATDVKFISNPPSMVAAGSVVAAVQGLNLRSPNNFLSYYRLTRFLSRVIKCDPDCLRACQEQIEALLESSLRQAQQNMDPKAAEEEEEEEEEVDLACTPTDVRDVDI
Chain of CDK6 (Q00534 whole entry): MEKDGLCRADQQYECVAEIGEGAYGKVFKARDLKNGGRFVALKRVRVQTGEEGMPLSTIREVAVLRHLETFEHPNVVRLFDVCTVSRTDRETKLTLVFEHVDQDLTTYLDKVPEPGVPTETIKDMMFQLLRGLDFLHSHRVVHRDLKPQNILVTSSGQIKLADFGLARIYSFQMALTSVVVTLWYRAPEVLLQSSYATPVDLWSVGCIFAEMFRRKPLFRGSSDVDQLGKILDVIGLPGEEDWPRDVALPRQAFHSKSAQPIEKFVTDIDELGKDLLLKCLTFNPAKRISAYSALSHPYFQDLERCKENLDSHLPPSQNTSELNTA
Chain of CDK6 (P24385 whole entry partner): as the sequence (P24385 whole entry partner) above

Row | IC50 ([1]; Cyclin D1, 1 μM 33P-ATP, 2 hours at room temperature, read-out: IC50 in CDK4 assay) [µM] | IC50 ([2]; Cyclin D1, 1 μM 33P-ATP, 2 hours at room temperature, read-out: IC50 in CDK6 assay) [µM] | IC50 [3] [µM] | IC50 ([1]; assay conditions described herein, read-out: IC50 CDK4 biochemical assay) [µM] | IC50 ([2]; assay conditions described herein, read-out: IC50 CDK6 biochemical assay) [µM] | SMILES
1 | < 0.001 | < 0.001 | < 2 |  |  | CCN1CCN(Cc2ccc(Nc3ncc(F)c(-c4ccc5nn(C)c(C(C)C)c5c4)n3)nc2)CC1 [Compound 1, N-(5-((4-ethylpiperazin-1-yl)methyl)pyridin-2-yl)-5-fluoro-4-(3-isopropyl-2-methyl-2H-indazol-5-yl)pyrimidin-2-amine]
2 |  |  | < 2 |  |  | CCN1CCN(Cc2ccc(Nc3ncc(F)c(-c4cc(F)c5nc(C)n(C(C)C)c5c4)n3)nc2)CC1 [Compound 33]
3 |  |  | 10 |  |  | CN(C)C(=O)c1cc2cnc(Nc3ccc(N4CCNCC4)cn3)nc2n1C1CCCC1 [Compound 32]
4 |  |  | 10 | < 0.001 | < 0.002 | CC(=O)c1c(C)c2nc(Nc3ccc(N4CCNCC4)cn3)ncc2n(C2CCCC2)c1=O [Compound 34]
